Activity and Selectivity index data for five compounds are collected here from ChEMBL document CHEMBL1147191, “Structure-activity relationship studies on anti-HCV activity of ring-expanded ('fat') nucleobase analogues containing the imidazo[4,5-e][1,3]diazepine-4,8-dione ring system” (Bioorg Med Chem Lett, 2007).

Data set [1] can be described thus: Cytotoxicity against Huh7 ET cells assessed as beta actin level relative to control. In kind it is cell-based. Set-up: concentration or dose not given beside the values. To be noted: human.
A further data set relates to Hepatitis C virus. In words: Antiviral activity against HCV in Huh7 ET cells assessed as HCV RNA derived luciferase activity at 10 uM by replicon assay relative to control. In kind it is functional, Hepacivirus hominis.
Data set [2] can be described thus: Selectivity index, ratio of toxicity against Huh7 ET cells to viral activity against HCV. In kind it is functional.

Consider `CCCCCCCCNc1nc(=O)c2c(nc(-c3ccc(OC)cc3)n2Cc2ccc(OC)cc2)c(=O)[nH]1`, for which the Activity amounted to 79% in data set [1] and 54% in the data set on Hepatitis C virus. In data set [2], the Selectivity index was found to be 1.463.

`CCCCCCCCNc1nc(=O)c2c(nc(-c3ccccc3)n2Cc2ccc(OC)cc2)c(=O)[nH]1`: the Activity in data set [1] worked out at 82%; in the data set with Hepatitis C virus, 88%. In addition, the Selectivity index in data set [2] is recorded as 0.932.

As for `NC(=O)c1ncn([C@@H]2O[C@H](CO)[C@@H](O)[C@H]2O)n1` [RIBAVIRIN], the values for the Activity (in data set [1]; in the data set on Hepatitis C virus) were 12% and 89%, respectively. Also, the Selectivity index in data set [2] stood at 0.42.

As for `CCCCCCCCNc1nc(=O)c2c(nc(C#CCCO)n2Cc2ccc(OC)cc2)c(=O)[nH]1`, the Activity is 52% in data set [1] and 90% in the data set on Hepatitis C virus. In data set [2], the Selectivity index was 0.578.

Regarding `CCCCCCCCNc1nc(=O)c2c(nc(Br)n2Cc2ccc(OC)cc2)c(=O)[nH]1`, the Activity in data set [1] is on record as 69%; in the data set on Hepatitis C virus, 32%. For the same compound, the Selectivity index in data set [2] came to 2.155.
